# Source: paper PMC10976043, “Function and Mechanism of Antiviral Wasp Venom Peptide Protopolybia-MP III and Its Derivatives against HSV-1” (Toxins, 2024)
# Where two headings read alike, the source gives them in different places. Ends that are not written are not given here.
# Tests used:
# [1] = system: human corneal epithelial cells (HCEC); assay: CCK8 cytotoxicity assay, HCEC; format: cell-based; details: 40 μg/mL, 24 h
# Method: (§1) Figure 2 Protopolybia-MP III inhibits HSV-1 replication in human cell lines. (A) Cytotoxicities of Protopolybia-MP III to A549 cells, HCEC, and SK-N-MC. Cells were treated with Protopolybia-MP III at different concentrations or PBS for 24 h, and then cytotoxicities were determined by the CCK8 assay. (B,C) Suppression of intracellular HSV-1 infection by Protopolybia-MP III in A549 cells, HCEC, and SK-N-MC. Cells were preincubated with Protopolybia-MP III at different concentrations or PBS for 1 h and then infected with HSV-1 at an MOI of 1. After 24 h, the cells were collected. Intracellular HSV-1 RNA was analyzed by qPCR (B), and intracellular HSV-1 ICP0 protein expression levels were analyzed by Western blotting (C). (D) Inhibition of Protopolybia-MP III on extracellular HSV-1 particles in A549 cells, HCEC, and SK-N-MC. Cells were treated with Protopolybia-MP III at different concentrations or PBS for 24 h, and then the supernatant was collected and evaluated in a plaque formation assay. * p < 0.05. ** p < 0.01. *** p < 0.001.
# Cells were seeded in a 96-well plate (7000–10,000 cells per well) and cultured at 37 °C overnight. Peptides in a series of concentrations were added to the medium, and cells were then incubated at 37 °C for 24 h. […] Finally, the absorbance was measured at 450 nm using a microplate reader (BioTek, Winooski, VT, USA).
# [2] = system: HSV-1; assay: Plaque formation assay of extracellular HSV-1 particles; format: cell-based, herpes simplex virus type 1; details: supernatant in plaque formation assay
# Method: (§2) (A) Amino acid sequence of Protopolybia-MP III. Basic residues are labeled blue, and acidic residues are labeled red. (B,C) Suppression of intracellular HSV-1 infection by Protopolybia-MP III. Cells were preincubated with Protopolybia-MP III at different concentrations or PBS for 1 h and then infected with HSV-1 at a multiplicity of infection (MOI) of 1. After 24 h, the cells were collected. Intracellular HSV-1 RNA was analyzed by qPCR (B), and intracellular HSV-1 ICP0 protein levels were analyzed by Western blotting (C). (D) Suppression of Protopolybia-MP III on extracellular HSV-1 particles. Cells were treated with Protopolybia-MP III at different concentrations or PBS for 24 h, and then the supernatant was collected and evaluated in a plaque formation assay. (E) Cytotoxicity of Protopolybia-MP III to Vero cells. Cells were treated with Protopolybia-MP III or PBS at different concentrations for 24 h, and then the cytotoxicity was determined by CCK8 assay. * p < 0.05. ** p < 0.01. *** p < 0.001.
# as §1
# Vero cells seeded in a 24-well plate at 100% confluence were infected with virus diluent or supernatant. After 1 h of absorption at 37 °C, the supernatant was removed. Cells were washed three times with PBS and replenished with a plaque-covering layer (MEM with 2% FBS and 1.5% carboxymethylcellulose). After an incubation period of approximately 3 days, the cells were stained with 1% crystal violet containing 10% methanol for 0.5 h. Then, the plaques were counted, and the viral titer was calculated according to the plaque number and dilution.
# [3] = system: HSV-1; assay: HSV-1 life cycle stage assay (different modes of peptide treatment), qPCR; format: cell-based, herpes simplex virus type 1
# Method: To determine the exact step at which Protopolybia-MP III blocks HSV-1 infection, we conducted an experiment with different modes of peptide treatment in Vero cells (Figure 3A). […] Then, we detected the protective effect of Protopolybia-MP III by pretreating Vero cells with 20 μg/mL Protopolybia-MP III before HSV-1 infection.
# Figure 3 Protopolybia-MP III inhibits multiple phases of the HSV-1 life cycle. (A) Schematic diagram for studying stage at which Protopolybia-MP III acts on the HSV-1 life cycle. (B) Effects of Protopolybia-MP III on the attachment, entry/fusion, and post-entry stages of the HSV-1 life cycle. Vero cells were infected with HSV-1 at an MOI of 1 and treated with 20 μg/mL Protopolybia-MP III as described in (A). After 24 h, cells were collected, and intracellular HSV-1 RNA was analyzed by qPCR. (C) The effect of Protopolybia-MP III on cell protection against HSV-1 infection. Vero cells were treated with 20 μg/mL Protopolybia-MP III or PBS and infected with HSV-1 at an MOI of 1 as described in (A). After 24 h, the cells were collected, and intracellular HSV-1 RNA was analyzed by qPCR. ns, no significance. ** p < 0.01. *** p < 0.001.
# (§3) Cells were collected and lysed using TRIzol reagent (Beyotime Biotechnology, Shanghai, China) to release the intracellular total RNA, followed by precipitation with isopropanol. The first-strand cDNA was reverse-transcribed by the HiScript III 1st Strand cDNA Synthesis Kit (+gDNA wiper) (Vazyme, Nanjing, China). The cDNA was quantitated by qPCR with primers using Taq Pro Universal SYBR qPCR Master Mix (Vazyme). The HSV-1 primers were 5′-[…]-3′ (sense) and 5′-[…]-3′ (antisense). The monkey GAPDH primers were 5′-[…]-3′ (sense) and 5′-[…]-3′ (antisense). The human GAPDH primers were 5′-[…]-3′ (sense) and 5′-[…]-3′ (antisense). qPCR experiments were performed on a Bio-Rad CFX96 Touch (Pleasanton, CA, USA) according to the manufacturer’s instructions.
# [4] = system: HSV-1; format: cell-based, herpes simplex virus type 1; details: for effect on intracellular HSV-1 RNA: different concentrations, HSV-1 MOI 1, 24 h, qPCR
# Method: as §2, §1
# HSV-1 was kindly provided by Professor Zhijian Cao of Wuhan University. Cells were infected with HSV-1 at an MOI of 1 for 24 h. Then, cells were collected for qPCR, Western blotting, and immunofluorescence assays, and the extracellular supernatant was used for plaque formation assays.
# as §3
# [5] = Vero cells, 20 μg/mL, HSV-1 MOI 1, 24 h, qPCR of HSV-1 RNA
substance,measurement,setting,value
INWLKLGKAVIDAL-NH2 [Protopolybia-MP III],cytotoxicity to HCEC,[1],almost nontoxic
same,extracellular HSV-1 level versus PBS,[2]; A549 cells treated 24 h,lower
same,extracellular HSV-1 level versus PBS,[2]; HCEC treated 24 h,lower
same,extracellular HSV-1 level versus PBS,[2]; SK-N-MC treated 24 h,lower
same,extracellular HSV-1 particles (plaques),[2]; Vero cells treated 24 h,fewer plaques
same,protection of cells from HSV-1 infection (pretreatment),"[3]; Vero cells pretreated with 20 μg/mL before HSV-1 infection, MOI 1, 24 h, qPCR",almost no effect
same,"inhibitory rate, attachment stage of the HSV-1 life cycle",[3]; [5],57%
same,"inhibitory rate, entry/fusion stage of the HSV-1 life cycle",[3]; [5],84%
same,"inhibitory rate, post-entry stage of the HSV-1 life cycle",[3]; [5],66%
same,50% inhibitory concentration (IC50) against HSV-1 RNA,[4]; 1 h,5.132 ± 1.054 µg/mL
same,inhibition rate on intracellular HSV-1 RNA,"[4]; 1 h, 5 μg/mL",50%
same,inhibition rate on intracellular HSV-1 RNA,"[4]; 1 h, 10 μg/mL",73%
same,inhibition rate on intracellular HSV-1 RNA,"[4]; 1 h, 20 μg/mL",94%
same,effect on intracellular HSV-1 RNA,[4]; A549 cells,suppressed HSV-1 RNA
same,effect on intracellular HSV-1 RNA,[4]; HCEC,suppressed HSV-1 RNA
same,effect on intracellular HSV-1 RNA,[4]; SK-N-MC,suppressed HSV-1 RNA
